# In patent US12522601B2, “1,3,4-oxadiazole derivative compounds as histone deacetylase 6 inhibitor, and the pharmaceutical composition comprising the same” (CHONG KUN DANG PHARMACEUTICAL CORP., priority 2020, dated 2026):
# Key:
# [1] = target: T1, human recombinant HDAC1 (Homo sapiens, UniProt Q13547); assay: In vitro HDAC enzyme activity inhibition assay, HDAC1 (HDAC Fluorimetric Drug Discovery Kit); assay type: biochemical; details: human recombinant HDAC1, Fluor de Lys-SIRT1 substrate 10 μM, 30° C. for 60 minutes
# T1 construct: purchased Enzo Life Sciences, Inc. BML-SE456
# T1 sequence (Q13547 whole entry): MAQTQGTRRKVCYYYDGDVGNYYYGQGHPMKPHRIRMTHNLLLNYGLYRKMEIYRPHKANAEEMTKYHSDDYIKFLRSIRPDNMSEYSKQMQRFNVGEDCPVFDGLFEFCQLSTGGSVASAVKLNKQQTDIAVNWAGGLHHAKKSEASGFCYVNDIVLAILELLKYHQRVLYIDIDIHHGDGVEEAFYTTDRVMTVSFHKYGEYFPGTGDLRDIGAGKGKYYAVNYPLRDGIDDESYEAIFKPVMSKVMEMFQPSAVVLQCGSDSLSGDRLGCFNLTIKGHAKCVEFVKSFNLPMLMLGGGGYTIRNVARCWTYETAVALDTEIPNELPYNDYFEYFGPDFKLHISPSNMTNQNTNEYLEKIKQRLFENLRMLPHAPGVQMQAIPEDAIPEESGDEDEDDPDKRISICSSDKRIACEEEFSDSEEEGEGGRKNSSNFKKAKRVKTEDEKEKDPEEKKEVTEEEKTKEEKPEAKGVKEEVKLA
# Procedure, shortened: (§1)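 Both HDAC1 and HDAC6 (human recombinant, 0.3 μg) tested identically: 10 μM fluorogenic Fluor de Lys-SIRT1 substrate, reaction 60 min at 30° C, developer added for 30 min. IC50 calculated from Ex 360/Em 460 signal over 5-fold serial dilutions.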
# [2] = target: T2, human recombinant HDAC6 (Homo sapiens, UniProt Q9UBN7); assay: In vitro HDAC enzyme activity inhibition assay, HDAC6 (HDAC Fluorimetric Drug Discovery Kit); assay type: biochemical; details: for HDAC6 Selectivity (fold): HDAC6 versus HDAC1; for IC50: human recombinant HDAC6, same protocol as the HDAC1 test
# T2 construct: purchased Calbiochem Inc. 382180
# T2 sequence (Q9UBN7 1-1215): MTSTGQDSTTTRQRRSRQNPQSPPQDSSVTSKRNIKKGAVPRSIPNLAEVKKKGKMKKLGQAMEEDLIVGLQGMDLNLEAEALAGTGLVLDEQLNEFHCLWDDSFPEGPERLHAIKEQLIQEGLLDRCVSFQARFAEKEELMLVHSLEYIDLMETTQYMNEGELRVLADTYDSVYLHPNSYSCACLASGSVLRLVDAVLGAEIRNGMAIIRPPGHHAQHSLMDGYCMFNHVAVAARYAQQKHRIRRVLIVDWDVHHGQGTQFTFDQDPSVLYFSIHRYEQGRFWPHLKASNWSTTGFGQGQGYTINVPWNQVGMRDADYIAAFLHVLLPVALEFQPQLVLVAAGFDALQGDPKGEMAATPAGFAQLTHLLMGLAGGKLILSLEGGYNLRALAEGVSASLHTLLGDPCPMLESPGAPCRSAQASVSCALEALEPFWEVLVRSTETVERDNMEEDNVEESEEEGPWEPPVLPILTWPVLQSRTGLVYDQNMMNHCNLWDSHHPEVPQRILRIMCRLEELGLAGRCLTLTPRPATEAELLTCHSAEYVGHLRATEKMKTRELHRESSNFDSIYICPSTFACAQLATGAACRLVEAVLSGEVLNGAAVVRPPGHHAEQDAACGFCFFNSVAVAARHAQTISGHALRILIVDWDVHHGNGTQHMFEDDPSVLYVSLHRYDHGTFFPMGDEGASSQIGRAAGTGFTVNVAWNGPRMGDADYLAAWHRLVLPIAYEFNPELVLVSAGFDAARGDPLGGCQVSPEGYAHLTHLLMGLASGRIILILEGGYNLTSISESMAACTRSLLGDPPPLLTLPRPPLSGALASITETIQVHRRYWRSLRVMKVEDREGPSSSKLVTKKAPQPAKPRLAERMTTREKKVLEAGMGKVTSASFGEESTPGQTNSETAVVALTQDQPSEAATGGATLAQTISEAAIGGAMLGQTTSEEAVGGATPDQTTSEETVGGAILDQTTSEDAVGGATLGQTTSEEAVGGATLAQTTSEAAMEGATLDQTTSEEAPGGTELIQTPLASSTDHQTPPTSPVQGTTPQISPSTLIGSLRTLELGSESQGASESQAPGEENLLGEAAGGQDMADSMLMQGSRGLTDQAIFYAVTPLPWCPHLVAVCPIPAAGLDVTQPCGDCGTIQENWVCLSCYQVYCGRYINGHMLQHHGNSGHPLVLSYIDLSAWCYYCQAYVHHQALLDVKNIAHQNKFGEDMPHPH
# Procedure, shortened: as §1
IC50 [1] [µM],HDAC6 Selectivity (fold) [2] [fold],IC50 [2] [nM],Compound
> 50,401,125,"FC(F)c1nnc(-c2ccn3cc(CNc4cccnc4)nc3c2)o1 [Compound 3675, N-((7-(5-(difluoromethyl)-1,3,4-oxadiazol-2-yl)imidazo[1,2-a]pyridin-2-yl)methyl)pyridin-3-amine]"
> 50,112,444,"CS(=O)(=O)c1ccc(Cc2cn3ccc(-c4nnc(C(F)F)o4)cc3n2)cc1 [Compound 3595, 2-(difluoromethyl)-5-(2-(4-(methylsulfonyl)benzyl)imidazo[1,2-a]pyridin-7-yl)-1,3,4-oxadiazole]"
> 50,147,340,"O=C(C1CN(C2CCCCC2)C1)N(Cc1cn2ccc(-c3nnc(C(F)F)o3)cc2n1)c1ccccc1 [Compound 4164, 1-cyclohexyl-N-((7-(5-(difluoromethyl)-1,3,4-oxadiazol-2-yl)imidazo[1,2-a]pyridin-2-yl)methyl)-N-phenylazetidine-3-carboxamide]"
> 50,696,71.8,"O=C(C1CCN(C2COC2)CC1)N(Cc1cn2ccc(-c3nnc(C(F)F)o3)cc2n1)c1ccccc1 [Compound 3783, N-((7-(5-(difluoromethyl)-1,3,4-oxadiazol-2-yl)imidazo[1,2-a]pyridin-2-yl)methyl)-1-(oxetan-3-yl)-N-phenylpiperidine-4-carboxamide]"
> 50,174,287,"Fc1cccc(OCc2cn3ccc(-c4nnc(C(F)F)o4)cc3n2)c1 [Compound 3722, 2-(difluoromethyl)-5-(2-((3-fluorophenoxy)methyl)imidazo[1,2-a]pyridin-7-yl)-1,3,4-oxadiazole]"
> 50,47,1060,FC(F)c1nnc(-c2ccn3cc(Cc4ccc(C(F)(F)F)cc4)nc3c2)o1 [Compound 3591]
> 50,386,130,"Fc1cccc(Cc2cn3ccc(-c4nnc(C(F)F)o4)cc3n2)c1 [Compound 3585, 2-(difluoromethyl)-5-(2-(3-fluorobenzyl)imidazo[1,2-a]pyridin-7-yl)-1,3,4-oxadiazole]"
> 50,194,257,"O=C(N1CCN(C2CCC(F)(F)CC2)CC1)N(Cc1cn2ccc(-c3nnc(C(F)F)o3)cc2n1)c1cccc(F)c1 [Compound 4091, 4-(4,4-difluorocyclohexyl)-N-((7-(5-(difluoromethyl)-1,3,4-oxadiazol-2-yl)imidazo[1,2-a]pyridin-2-yl)methyl)-N-(3-fluorophenyl)piperazine-1-carboxamide]"
> 50,464,108,"Fc1ccc(NCc2cn3ccc(-c4nnc(C(F)F)o4)cc3n2)cc1Cl [Compound 3672, 3-chloro-N-((7-(5-(difluoromethyl)-1,3,4-oxadiazol-2-yl)imidazo[1,2-a]pyridin-2-yl)methyl)-4-fluoroaniline]"
> 50,122,410,"O=C(C1CN(C2COC2)C1)N(Cc1cn2ccc(-c3nnc(C(F)F)o3)cc2n1)c1ccccc1 [Compound 4163, N-((7-(5-(difluoromethyl)-1,3,4-oxadiazol-2-yl)imidazo[1,2-a]pyridin-2-yl)methyl)-1-(oxetan-3-yl)-N-phenylazetidine-3-carboxamide]"
> 50,196,255,"FC(F)c1nnc(-c2ccn3cc(CNC45CC6CC(CC(C6)C4)C5)nc3c2)o1 [Compound 3677, (3s,5s,7s)-N-((7-(5-(difluoromethyl)-1,3,4-oxadiazol-2-yl)imidazo[1,2-a]pyridin-2-yl)methyl)adamantane-1-amine]"
